Measured values as given in article PMC6556873, “Rapid Covalent-Probe Discovery by Electrophile-Fragment Screening” (Journal of the American Chemical Society, 2019).
Like-named read-outs stand apart in the source and are kept apart here.

Columns and labels:
in vitro [1] = test: in vitro; design: species or system CCD841, HEK293; settings: human, hb2 cells, read-out: HB-2 Cells Viability (%)
in vitro [2] = test: in vitro; design: species or system HB2, HEK293; settings: human, ccd841 cells
NNMT (hNNMT) = target: T1, NNMT (hNNMT) (Homo sapiens, UniProt P40261); design: Intact protein LC/MS covalent labelling, fragments in pools of five, 200 uM each, 4 °C; settings: 24 h, 4 °C, pool of five; 200 µM; covalent
T1 construct: wild type, N-terminal His6 tag kept (no cleavage described), E. coli, construct 31248 Da
T1 sequence (P40261 1-264): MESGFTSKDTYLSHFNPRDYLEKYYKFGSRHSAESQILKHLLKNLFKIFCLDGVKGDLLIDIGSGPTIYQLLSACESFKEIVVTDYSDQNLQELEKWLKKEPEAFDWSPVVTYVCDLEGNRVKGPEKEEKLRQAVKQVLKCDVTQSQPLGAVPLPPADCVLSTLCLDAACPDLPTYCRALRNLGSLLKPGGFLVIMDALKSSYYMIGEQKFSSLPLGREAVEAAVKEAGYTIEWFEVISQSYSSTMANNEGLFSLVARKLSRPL

PCAF = target: T2, PCAF (Homo sapiens, UniProt Q92831); design: Intact protein LC/MS covalent labelling, fragments in pools of five, 200 uM each, 4 °C; settings: 24 h, 4 °C, pool of five; 200 µM; covalent
T2 construct: gene KAT2B

OTUB2 (OTUB2A) = target: T3, OTUB2 (OTUB2A) (Homo sapiens, UniProt Q96DC9); design: Intact protein LC/MS covalent labelling, fragments in pools of five, 200 uM each, 4 °C; settings: 24 h, 4 °C, pool of five; 200 µM; covalent
T3 construct: full length residues 1-234, E. coli BL21(DE3)-R3, His tag removed by TEV, construct 27312 Da
T3 sequence (Q96DC9 1-234): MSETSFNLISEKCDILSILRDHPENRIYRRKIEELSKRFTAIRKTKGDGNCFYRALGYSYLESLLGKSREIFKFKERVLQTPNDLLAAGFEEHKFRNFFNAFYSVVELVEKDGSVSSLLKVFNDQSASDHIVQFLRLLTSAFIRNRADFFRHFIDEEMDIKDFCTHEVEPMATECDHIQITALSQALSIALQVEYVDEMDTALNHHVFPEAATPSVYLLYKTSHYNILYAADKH

NUDT7 = target: T4, NUDT7 (Homo sapiens, UniProt P0C024); design: Intact protein LC/MS covalent labelling, fragments in pools of five, 200 uM each, 4 °C; settings: 24 h, 4 °C, pool of five; 200 µM; covalent
T4 construct: residues 14-235, E. coli, pNIC28-Bsa4, N-terminal His6 tag removed by TEV, construct 26672 Da

BSA = target: T5, BSA (Bos taurus, UniProt P02769); design: Intact protein LC/MS covalent labelling, fragments in pools of five, 200 uM each, 4 °C; settings: 24 h, 4 °C, pool of five; 200 µM; covalent
T5 construct: gene ALB

in vitro [3] = test: in vitro; design: species or system HB2, CCD841; settings: human, hek293 cells

T2 sequence (Q92831 whole entry, the tested form may be a part): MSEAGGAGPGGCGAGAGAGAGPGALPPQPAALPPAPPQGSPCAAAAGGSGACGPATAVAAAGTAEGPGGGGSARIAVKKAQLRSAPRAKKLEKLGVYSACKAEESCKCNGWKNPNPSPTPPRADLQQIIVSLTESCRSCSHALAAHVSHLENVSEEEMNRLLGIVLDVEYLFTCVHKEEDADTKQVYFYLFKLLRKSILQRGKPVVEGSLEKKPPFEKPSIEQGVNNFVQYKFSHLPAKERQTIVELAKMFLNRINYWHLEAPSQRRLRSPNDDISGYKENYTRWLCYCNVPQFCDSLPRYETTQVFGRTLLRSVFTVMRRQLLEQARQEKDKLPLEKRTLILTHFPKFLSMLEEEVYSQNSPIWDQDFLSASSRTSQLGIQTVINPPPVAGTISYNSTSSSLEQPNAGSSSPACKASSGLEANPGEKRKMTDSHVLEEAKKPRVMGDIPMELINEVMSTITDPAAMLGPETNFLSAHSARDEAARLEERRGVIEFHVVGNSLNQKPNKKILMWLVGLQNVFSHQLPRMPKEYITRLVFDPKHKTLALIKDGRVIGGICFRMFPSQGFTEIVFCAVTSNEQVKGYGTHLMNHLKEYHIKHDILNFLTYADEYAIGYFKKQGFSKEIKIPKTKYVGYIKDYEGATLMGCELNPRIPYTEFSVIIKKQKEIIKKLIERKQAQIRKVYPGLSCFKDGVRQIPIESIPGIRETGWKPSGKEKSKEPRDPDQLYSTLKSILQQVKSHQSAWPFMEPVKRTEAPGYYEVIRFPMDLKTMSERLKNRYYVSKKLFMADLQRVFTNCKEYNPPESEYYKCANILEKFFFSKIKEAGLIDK
T4 sequence (P0C024 14-235): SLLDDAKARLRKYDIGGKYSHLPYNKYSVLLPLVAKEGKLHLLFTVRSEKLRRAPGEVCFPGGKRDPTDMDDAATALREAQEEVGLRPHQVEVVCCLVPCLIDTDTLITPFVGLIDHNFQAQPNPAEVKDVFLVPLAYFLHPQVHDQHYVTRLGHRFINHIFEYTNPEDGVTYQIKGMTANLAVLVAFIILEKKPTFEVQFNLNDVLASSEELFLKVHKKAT
T5 sequence (P02769 whole entry, the tested form may be a part): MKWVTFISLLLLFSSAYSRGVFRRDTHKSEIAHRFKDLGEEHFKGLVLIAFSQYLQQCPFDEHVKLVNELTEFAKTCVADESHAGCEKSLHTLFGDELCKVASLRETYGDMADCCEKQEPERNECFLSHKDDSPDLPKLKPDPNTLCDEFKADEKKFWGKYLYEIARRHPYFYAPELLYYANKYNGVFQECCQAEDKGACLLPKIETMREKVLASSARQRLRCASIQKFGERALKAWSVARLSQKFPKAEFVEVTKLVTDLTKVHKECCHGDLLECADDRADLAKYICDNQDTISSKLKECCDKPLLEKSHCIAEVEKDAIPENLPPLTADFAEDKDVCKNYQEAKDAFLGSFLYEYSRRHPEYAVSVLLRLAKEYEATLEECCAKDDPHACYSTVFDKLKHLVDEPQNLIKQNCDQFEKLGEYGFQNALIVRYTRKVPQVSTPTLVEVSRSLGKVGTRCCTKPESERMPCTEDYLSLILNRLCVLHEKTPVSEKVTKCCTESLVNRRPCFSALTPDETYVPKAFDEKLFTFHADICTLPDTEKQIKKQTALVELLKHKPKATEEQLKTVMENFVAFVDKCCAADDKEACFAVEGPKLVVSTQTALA

Row | NNMT (NNMT (hNNMT)) | PCAF (PCAF) | OTUB2 (OTUB2 (OTUB2A)) | NUDT7 (NUDT7) | BSA (BSA) | Compound | viability at 48 h, 10 µM (in vitro [1]) [%] | viability at 48 h, 10 µM (in vitro [2]) [%] | viability at 48 h, 10 µM (in vitro [3]) [%]
1 | 0.51 | 0 | 0.27 | 0.2 | 0 | O=C(CCl)Nc1cc([N+](=O)[O-])ccc1Cl [PCM-0102366] | 1.3 | 4.3 | 2.6
2 | 0 | 0 | 0.18 | 0.23 | 0 | COc1ccc(Cl)cc1NC(=O)CCl [PCM-0102370] | 3.7 | 34.6 | 3.3
3 | 0.28 | 0 | 0 | 0.28 | 0 | O=C(CCl)N(c1ccccc1)C1C=CS(=O)(=O)C1 (centres unmarked) [PCM-0102372] | 24.1 | 31 | 11.2
4 | 0 | 0 | 0 | 0 | 0 | Cl.O=C(CCl)N1CCN(c2ccccc2F)CC1 [PCM-0102373] | 55.8 | 79.7 | 64.3
5 | 0.55 | 0 | 0.34 | 0.23 | 0 | CC(NC(=O)CCl)c1ccc(Br)cc1 (centres unmarked) [PCM-0102374] | 63.8 | 73.1 | 50
6 | 0 | 0 | 0.13 | 0 | 0 | O=C(CCl)Nc1ccccc1N1CCCC1=O [PCM-0102375] | 79.6 | 78 | 51.9
7 | 0.64 | 0 | 0.45 | 0.81 | 0 | Cc1ccc(-c2cc(NC(=O)CCl)on2)cc1 [PCM-0102382] | 42.7 | 54.6 | 52.2
8 | 0 | 0 | 0 | 0 | 0 | O=C(CCl)N1CCN(Cc2ccc3c(c2)OCCO3)CC1 [PCM-0102386] | 42.2 | 75.9 | 39.1
9 | 0 | 0 | 0.14 | 0.1 | 0 | O=C(Nc1ccccc1O)C1CCN(C(=O)CCl)CC1 [PCM-0102389] | 35.7 | 63 | 16
10 | 0.26 | 0 | 0.26 | 0.1 | 0 | Cc1ccccc1C(C)NC(=O)CCl (centres unmarked) [PCM-0102390] | 92.8 | 71.4 | 75.8
11 | 0 | 0 | 0 | 0 | 0 | Cl.O=C(CCl)N1CCN(Cc2ccc3c(c2)OCO3)CC1 [PCM-0102397] | 20.7 | 67.3 | 31.7
12 | 0 | 0 | 0 | 0 | 0 | O=C(CCl)Nc1ccc(C(=O)O)cc1 [PCM-0102400] | 84.1 | 72.5 | 112
13 | 0.53 | 0 | 0 | 0.58 | 0 | CN(Cc1ccc(Br)cc1)C(=O)CCl [PCM-0102401] | 6.8 | 32.1 | 7.3
14 | 0 | 0 | 0.33 | 0 | 0 | O=C(CCl)NC1C2CC3CC(C2)CC1C3 (centres unmarked) [PCM-0102404] | 63.3 | 68.9 | 90.6
15 | 0 | 0 | 0.33 | 0 | 0 | CS(=O)(=O)c1cccc(NC(=O)CCl)c1 [PCM-0102407] | 26.4 | 47 | 1.4
16 | 0 | 0 | 0 | 0 | 0 | O=C(CCl)NC(=O)c1ccccc1 [PCM-0102414] | 102 | 101 | 91.5
17 | 0 | 0 | 0 | 0 | 0 | O=C(CCl)Nc1ccccc1N1CCOCC1 [PCM-0102416] | 99.5 | 90.7 | 113
18 | 0.8 | 0 | 0 | 0.12 | 0 | COC(=O)c1c(NC(=O)CCl)sc2c1CCC(C)C2 (centres unmarked) [PCM-0102418] | 40.8 | 88.6 | 56.4
19 | 0.19 | 0 | 0 | 0 | 0 | C=CC(=O)N1CCCc2cc(C(=O)O)ccc21 [PCM-0102421] | 96.3 | 109 | 87.2
20 | 0 | 0 | 0 | 0.06 | 0 | O=C(CCl)NN1C(=O)NC2(CCCCC2)C1=O [PCM-0102424] | 95 | 94.7 | 103
21 | 0.52 | 0 | 0.23 | 0.1 | 0 | CC(C)c1cccc(NC(=O)CCl)c1 [PCM-0102429] | 17.7 | 57.3 | 17.7
22 | 0 | 0 | 0.64 | 0 | 0 | Cc1cc(CNC(=O)CCl)cc(C)c1O [PCM-0102431] | 85.7 | 96.3 | 84.6
23 | 0.65 | 0 | 0.17 | 0.33 | 0 | O=C(CCl)N1Cc2ccccc2C(c2ccccc2)C1 (centres unmarked) [PCM-0102432] | 38.2 | 12.4 | 20.6
24 | 0 | 0 | 0 | 0 | 0 | C=CC(=O)N1CCC(n2ccc(C(F)(F)F)n2)CC1 [PCM-0102435] | 96.3 | 93.3 | 85.7
25 | 0.14 | 0 | 0 | 0 | 0 | C=CC(=O)N1CC(S(=O)(=O)CC)C1 [PCM-0102442] | 94.8 | 100 | 77.7
